Reference: patent US7482329B2, “Single domain TDF-related compounds and analogs thereof” (Thrasos Therapeutics, priority 2002, dated 2009)
“Also recorded” adds a separate entry of the source. Where a SMILES comes first, the peptide text is derived from it.

T1: BMPR-2 receptor extra cellular domain (Homo sapiens, UniProt Q13873)
T1 construct: immobilized BMPR-2 receptor extra cellular domain (ECD)
T1 sequence (Q13873 27-150 limits assumed): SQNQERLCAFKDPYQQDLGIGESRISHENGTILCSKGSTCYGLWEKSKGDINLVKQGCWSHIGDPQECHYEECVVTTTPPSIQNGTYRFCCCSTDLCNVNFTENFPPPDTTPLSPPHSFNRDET

B1: TDF-1: TDF-1 (BMP-7 or OP-1), bone morphogenetic protein-7; unlabeled control ligand in the binding and cell assays (protein)
chain: STGSKQRSQNRSKTPKNQEALRMANVAENSSSDQRQACKKHELYVSFRDLGWQDWIIAPEGYAAYYCEGECAFPLNSYMNATNHAIVQTLVHFINPETVPKPCCAPTQLNAISVLYFDDSSNVILKKYRNMVVRACGCH

Assays:
Smad1 in HK2 cells = assay: Smad1 accumulation in the nucleus of HK2 cells (Ser-Thr signal transduction); assay type: cell-based, human; settings: fluorescent labeling of Smad-1, FIG. 8, FIG. 9
Text: Open column is non-inflammation background level of ICAM-1; Black column is the ICAM-1 level following TNF-alpha inflammatory stimulation. […] In the Ser-Thr signaling pathway, the ligand (TDF-1 or TP2.003) bind to both the type 1 receptor (ALK3) and the type 2 receptor (BMPR2) inducing oligomerization of the receptors. The type 2 receptor under goes phosphorylation and then phosphorylates the type 1 receptor, which then phosphorylates one of Smad 1, 5 or 8 (ref. to as Smad1 below). The phosphorylated Smad1 is then picked up by Smad4 and ferried into the nucleus. Thus, detection of the concentration of Smad1 in the nucleus is diagnostic of induction of signal transduction.
Note that in the right hand column, the phase contrast images of the HK2 cells showing close to confluency; the images on the left show fluorescent labeling of Smad-1 in the nucleus of HK2 cells.

[1] = molecular target: T1, BMPR-2 receptor extra cellular domain; assay: Radio-ligand receptor binding assay, competition with 125I-labeled TDF-1 for BMPR-2
Text: (§1) General protocol: These assays are based on competition between ^125I-labeled TDF-1 (BMP-7 or OP-1) and candidate TDFRP compounds or unlabeled TDF-1 for binding to respective receptors (ALK-3, ALK-6 or BMPR-2). In brief, the procedure involves immobilization of receptor on 96 well Removawell plates, blocking the wells with 3% BSA in PBS and subsequently washing the wells. Increasing concentrations of unlabeled TDF-1 or TDFRP compounds or control (unlabeled TDF-1) prepared in binding buffer are then added. Incubate plate for 1 hour at room temperature, and then add a fixed amount of ^125I-labeled TDF-1 (250,000 to 350,000 cpm) to the wells and further incubate in cold (4° C.) for 20 hours. Aspirate the contents of the wells and wash the wells four times with a wash buffer, and count the receptor bound ^125I-labeled TDF-1 in an auto gamma counter. B. HK-2 Cell Culture and Determination of Cytokine Production

[2] = system: ICAM-1 in HK2 human transformed kidney proximal tubule cells; assay: ICAM-1 level in HK-2 cell medium after TNF-alpha stimulation (ELISA); assay type: cell-based; settings: FIG. 7; for effect on level of ICAM-1 in HK2 cell medium: after TNF-alpha inflammatory stimulation
Experimental: The immortalized PTEC-derived HK-2 (Human Kidney-2) cells (ATCC number CRL-2190) were grown in serum-free keratinocyte medium (GIBCO number 17005-042) supplemented with epidermal growth factor (EGF: 5 ng/mL) and bovine pituitary extract (40 ug/mL) for 48 hours as described previously (Ryan et al (1994) Kidney International 45:48-57). Cells were transferred to 24-well plates at a density of 3×10^5 cells per well. After 24 hours, cells were incubated with fresh medium containing TNF-alpha (5 ng/mL) for 20 hours. Controls received medium alone. Then cells were washed twice with fresh culture medium and further incubated with culture medium alone (medium control, and TNF control wells) or TDF-1 at three different concentrations (40, 200 or 1000 ng/mL) or TDFRP compounds at three different concentrations (4, 20 or 100 uM) for sixty hours. During incubation, cells were kept in a 5% CO2 humid atmosphere at 37° C. At the end of the incubation, the media were removed and stored frozen until assayed. The concentrations of IL-6 and sICAM-in culture supernatants were measured by specific ELISA.
Dilute the capture antibody to the working concentration in PBS, pH 7.4 without carrier protein. Add 61 uL of stock antibody (720 ug/mL) to 10.939 mL of PBS, gently vertex. Immediately coat a 96 well microplate (Immulon 4 HBX) with 100 uL per well of the diluted capture antibody. Seal the plate and incubate it overnight in cold (4° C.). (PBS: 8.1 mM Na2HPO4, 1.5 mM KH2PO4, 137 mM NaCl, 2.7 mM KCl, pH 7.4, 0.2 um filtered).
Next day empty the wells and wash the wells three times, each time using 340 uL of wash buffer per well. (wash buffer: PBS, pH 7.4 containing 0.05% Tween-20). Prepare blocking buffer, 35 mL per plate. To prepare blocking buffer, add 0.35 grams of BSA and 1.75 grams of sucrose to 35 mL of PBS, pH 7.4, and mix the contents gently. Add 300 uL of blocking buffer to each well and incubate the plate for a minimum of 1 hour at room temperature. Empty the wells and wash wells three times, each time using 340 uL of wash buffer per well. […]

[3] = molecular target: T2, BMPR-1A (ALK3) receptor extra cellular domain (Homo sapiens, UniProt P36894); assay: Radio-ligand receptor binding assay, competition with 125I-labeled TDF-1 for ALK-3; settings: FIG. 1; cold ligand vs 125I-labeled TDF-1; read-out: ED50, displacing labeled TDF-1 from immobilized BMPR-1A receptor ECD
T2 construct: immobilized BMPR-1A receptor extra cellular domain (ECD)
Text: as §1

T2 sequence (P36894 24-152 limits assumed, species assumed): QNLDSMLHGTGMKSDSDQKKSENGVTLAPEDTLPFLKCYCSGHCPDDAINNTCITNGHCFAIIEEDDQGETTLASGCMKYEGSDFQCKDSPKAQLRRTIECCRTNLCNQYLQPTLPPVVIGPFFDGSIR

Molecule	Smad1 accumulation in the nucleus / induction of Ser-Thr signal transduction (Smad1 in HK2 cells)	specific binding to BMPR-2 / inhibition of specific binding of labeled TDF-1 to BMPR-2 receptor ([1]; competitive binding, FIG. 4)	EC50 ([2]; HK2 cells, TNF-alpha stimulus, read-out: ED50, lowering of ICAM-1 level) [nM]	effect on level of ICAM-1 in HK2 cell medium [2]	EC50 ([1]; FIG. 3, read-out: ED50, displacing labeled TDF-1 from immobilized BMPR-2 receptor ECD) [nM]	EC50 [3] [nM]
CC(C)C[C@H](NC(=O)[C@@H](NC(=O)[C@H](CC(N)=O)NC(=O)[C@H](CO)NC(=O)[C@H](CO)NC(=O)[C@H](CC(=O)O)NC(=O)[C@H](CC(=O)O)NC(=O)[C@H](Cc1ccccc1)NC(=O)[C@H](Cc1ccc(O)cc1)NC(=O)[C@@H](N)CS)C(C)C)C(=O)N[C@@H](CS)C(=O)N[C@@H](CCCCN)C(=O)N[C@@H](CCCCN)C(=O)N[C@@H](Cc1ccc(O)cc1)C(=O)N[C@@H](CCCNC(=N)N)C(=O)N[C@@H](CO)C(=O)O [SEQ ID NO:45, CYFDDSSNVLCKKYRS] (H-CYFDDSSNVLCKKYRS-OH)	induces Ser-Thr signal transduction; also recorded: dose dependent response of Smad1 accumulation in the nucleus	specifically binds and does	< 4000	reduces the level of cellular inflammation marker ICAM-1; also recorded: lowers the level of ICAM-1 in a dose dependent manner		
B1	induces Ser-Thr signal transduction; also recorded: dose dependent response of Smad1 accumulation in the nucleus			lowers the level of ICAM-1 in a dose dependent manner	6.3	6.5
